Usually IC50 stands for the concentration at which inhibition is half-maximal. High values mean weaker potency in that assay, low ones greater potency in that assay.

Test [1] addresses T1, hENPP2 (UniProtKB/SwissProt Sequence ref Q13822) (Homo sapiens (Human), UniProt Q13822). As to the kind of experiment: LPC hENPP2 assay (choline release, LPC as substrate). The class given is biochemical. The gist of the method: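 Choline released from LPC by ENPP2 is quantified after stopping with stop-developer containing 0.6 U/mL choline oxidase, 0.6 U/mL peroxidase, 1.8 mM TOOS, 1.2 mM amino-antipyrine and 20 mM EGTA. Quinoneimine dye read at 555 nm after 30 min at room temperature.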

Test [2] concerns the target T1, hENPP2. As to the kind of experiment: FS3 hENPP2 assay (fluorogenic substrate FS-3). The class given is biochemical. The following applies: hENPP2, FS-3 as substrate. In outline: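 Compound dilutions (1/5 steps, top concentration as added 20 μM) were preincubated 30 min at room temperature with hENPP2 (0.4 or 0.64 μg/mL final) in pH 8.0 Tris buffer containing NaCl, KCl, MgCl2, CaCl2 and 0.1% fatty-acid-free BSA. FS-3 (0.75 μM as added) was then hydrolysed for 30 min at 30 °C, and fluorescence was read at 485/520 nm.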

For `CCc1nc2cnc(C3CCNCC3)cn2c1N(C)c1nc(-c2ccc(F)cc2)c(C#N)s1` [Cpd 22, 2-((2-ethyl-6-(piperidin-4-yl)imidazo[1,2-a]pyrazin-3-yl)(methyl)amino)-4-(4-fluorophenyl) thiazole-5-carbonitrile], the IC50 against hENPP2 [1] was above 1000 nM; against hENPP2 [2], 25 to 50 nM.
Take `CCc1nc2ccc(N3CCC(C(N)=O)CC3)nn2c1N(C)c1nc(-c2ccc(F)cc2)cs1` [Cpd 98, 1-(2-ethyl-3-((4-(4-fluorophenyl)thiazol-2-yl)(methyl)amino)imidazo[1,2-b]pyridazin-6-yl)piperidine-4-carboxamide]: the figures for the IC50 against hENPP2 [1] and against hENPP2 [2] were above 1000 nM and 0.01 to 25 nM, respectively.
Take `CCc1nc2ccc(N3CCC(N)C3)nn2c1N(C)c1nc(-c2ccc(F)cc2)cs1` (centres unmarked) [Cpd 134, N-(6-(3-aminopyrrolidin-1-yl)-2-ethylimidazo[1,2-b]pyridazin-3-yl)-4-(4-fluorophenyl)-N-methylthiazol-2-amine]: the values for the IC50 at hENPP2 [1] and at hENPP2 [2] were above 1000 nM and 0.01 to 25 nM, respectively.
For the compound `CCc1nc2ccc(N3CCC(CC(=O)N(C)C)CC3)nn2c1N(C)c1nc(-c2ccc(F)cc2)cs1` [Cpd 108, 2-(1-(2-ethyl-3-((4-(4-fluorophenyl)thiazol-2-yl)(methyl)amino)imidazo[1,2-b]pyridazin-6-yl)piperidin-4-yl)-N,N-dimethylacetamide], the IC50 at hENPP2 [1] was in the range of 500 to 1000 nM; against hENPP2 [2], 0.01 to 25 nM.
For `CCc1nc2ccc(N3CCC(N4CCN(CCCO)CC4)C3)nn2c1N(C)c1nc(-c2ccc(F)cc2)cs1` (centres unmarked) [Cpd 145, 3-(4-(1-(2-ethyl-3-((4-(4-fluorophenyl)thiazol-2-yl)(methyl)amino)imidazo[1,2-b]pyridazin-6-yl)pyrrolidin-3-yl)piperazin-1-yl)propan-1-ol], in that order: 500 to 1000 nM and 0.01 to 25 nM.
For `CN(c1nc(-c2ccc(F)cc2)cs1)c1c(CO)nc2ccc(C3=CCN(S(C)(=O)=O)CC3)nn12` [Compound 195, (3-((4-(4-fluorophenyl)thiazol-2-yl)(methyl)amino)-6-(1-(methylsulfonyl)-1,2,3,6-tetrahydropyridin-4-yl)imidazo[1,2-b]pyridazin-2-yl)methanol], in that order: above 1000 nM and 0.01 to 25 nM.
As to `CCc1nc2ccc(N3CCN(S(=O)(=O)CC)CC3)nn2c1N(C)c1nc(-c2ccc(F)cc2)cs1` [Cpd 71, N-(2-ethyl-6-(4-(ethylsulfonyl)piperazin-1-yl)imidazo[1,2-b]pyridazin-3-yl)-4-(4-fluorophenyl)-N-methylthiazol-2-amine], the 50% inhibitory concentration (IC50) on hENPP2 [1] was above 1000 nM; on hENPP2 [2], 0.01 to 25 nM.
For `CCc1nc2ccc(N3CCN(CC(=O)N4CCCC4)[C@H](CO)C3)nn2c1N(C)c1nc(-c2ccc(F)cc2)cs1` [Compound 64, (S)-2-(4-(2-ethyl-3-((4-(4-fluorophenyl)thiazol-2-yl)(methyl)amino)imidazo[1,2-b]pyridazin-6-yl)-2-(hydroxymethyl)piperazin-1-yl)-1-(pyrrolidin-1-yl)ethanone], in that order: 100 to 500 nM and 0.01 to 25 nM.
In the case of `CCc1nc2ccc(N3CCC(O)C3)nn2c1N(C)c1nc(-c2ccc(F)cc2)c(C#N)s1` (centres unmarked) [Cpd 171, 2-((2-ethyl-6-(3-hydroxypyrrolidin-1-yl)imidazo[1,2-b]pyridazin-3-yl)(methyl)amino)-4-(4-fluorophenyl) thiazole-5-carbonitrile], the half-maximal inhibitory concentration (IC50) against hENPP2 [1] was in the range of 100 to 500 nM; on hENPP2 [2] it was 0.01 to 25 nM.
For `CCc1nc2ccc(N3CCC(=O)C3)nn2c1N(C)c1nc(-c2ccc(F)cc2)c(C#N)s1` [Compound 172, 2-((2-ethyl-6-(3-oxopyrrolidin-1-yl)imidazo[1,2-b]pyridazin-3-yl)(methyl)amino)-4-(4-fluorophenyl)thiazole-5-carbonitrile], in that order: 100 to 500 nM and 0.01 to 25 nM.
For `CCc1nc2ccc(N3CCN(CC(=O)N(C)C)CC3)nn2c1N(C)c1nc(-c2ccc(F)cc2)c(C(=O)C(F)(F)F)s1` [Cpd 45, 2-(4-(2-ethyl-3-((4-(4-fluorophenyl)-5-(2,2,2-trifluoroacetoyl)thiazol-2-yl)(methyl)amino)imidazo[1,2-b]pyridazin-6-yl)piperazin-1-yl)-N,N-dimethylacetamide], in that order: 0.01 to 100 nM and 0.01 to 25 nM.
For `CCc1nc2ccc(N3CCN(CC(=O)N4CCCC4CO)CC3)nn2c1N(C)c1nc(-c2ccc(F)cc2)cs1` (centres unmarked) [Cpd 29], in that order: 100 to 500 nM and 0.01 to 25 nM.
`CCc1nc2ccc(N3CCN(CCC(N)=O)CC3)nn2c1N(C)c1nc(-c2ccc(F)cc2)cs1` [Compound 52, 3-(4-(2-ethyl-3-((4-(4-fluorophenyl)thiazol-2-yl)(methyl)amino)imidazo[1,2-b]pyridazin-6-yl)piperazin-1-yl)propanamide]: the IC50 lay within 500 to 1000 nM against hENPP2 [1] and 0.01 to 25 nM against hENPP2 [2].
In the same order, the values of `CCc1nc2ccc(N3CCC(CO)CC3)nn2c1N(C)c1nc(-c2ccc(F)cc2)cs1` [Cpd 93, (1-(2-ethyl-3-((4-(4-fluorophenyl)thiazol-2-yl)(methyl)amino)imidazo[1,2-b]pyridazin-6-yl)piperidin-4-yl)methanol] are above 1000 nM and 0.01 to 25 nM.
In the same order, the values of `CCc1nc2ccc(C3CCN(CC(=O)N4CC(O)C4)CC3)nn2c1N(C)c1nc(-c2ccc(F)cc2)c(C#N)s1` [Cpd 212, 2-((2-ethyl-6-(1-(2-(3-hydroxyazetidin-1-yl)-2-oxoethyl)piperidin-4-yl)imidazo[1,2-b]pyridazin-3-yl)(methyl)amino)-4-(4-fluorophenyl) thiazole-5-carbonitrile] are 0.01 to 100 nM and 0.01 to 25 nM.
As to `CCc1nc2ccc(N3CCOCC3)nn2c1N(C)c1nc(-c2ccc(F)cc2)cs1` [Cpd 78, N-(2-ethyl-6-morpholinoimidazo [1,2-b]pyridazin-3-yl)-4-(4-fluorophenyl)-N-methylthiazol-2-amine], the 50% inhibitory concentration (IC50) at hENPP2 [1] was above 1000 nM; against hENPP2 [2] it was 0.01 to 25 nM.
Turning to `CCc1nc2ccc(N3CC4CN(C(=O)OC(C)(C)C)CC4C3)nn2c1N(C)c1nc(-c2ccc(F)cc2)cs1` (centres unmarked) [Cpd 122, tert-butyl 5-(2-ethyl-3-((4-(4-fluorophenyl)thiazol-2-yl)(methyl)amino)imidazo[1,2-b]pyridazin-6-yl)hexahydro-pyrrolo[3,4-c] pyrrole-2(1H)-carboxylate], the IC50 was above 1000 nM against hENPP2 [1] and 0.01 to 25 nM at hENPP2 [2].
On to `CCc1nc2ccc(N3CC4CN(S(C)(=O)=O)CC4C3)nn2c1N(C)c1nc(-c2ccc(F)cc2)cs1` (centres unmarked) [Compound 123, N-(2-ethyl-6-(5-(methylsulfonyl)hexahydropyrrolo[3,4-c]pyrrol-2(1H)-yl)imidazo[1,2-b]pyridazin-3-yl)-4-(4-fluorophenyl)-N-methylthiazol-2-amine], for which the IC50 is above 1000 nM against hENPP2 [1] and 0.01 to 25 nM against hENPP2 [2].
For `CCOC(=O)C1CCN(c2ccc3nc(CC)c(N(C)c4nc(-c5ccc(F)cc5)cs4)n3n2)CC1` [Compound 95, ethyl 1-(2-ethyl-3-((4-(4-fluorophenyl)thiazol-2-yl)(methyl)amino)imidazo[1,2-b]pyridazin-6-yl)piperidine-4-carboxylate], in that order: above 1000 nM and 0.01 to 25 nM.

Values taken from patent publication US9796719B2, “Compounds and pharmaceutical compositions thereof for the treatment of inflammatory disorders” (GALAPAGOS NV, priority 2013, dated 2017).
